This passage reports inhibition and IC50 results from patent publication US20090105278A1, “Selective inhibitors of human corticosteroid syntheses” (Universitat Des Saarlandes, priority 2004, published 2009).

One may read the inhibition as the drop in the measured response relative to a control, in per cent. In general, IC50 refers to the concentration needed to halve the response being measured.

In one assay the target is T1, human CYP11B2 (Homo sapiens, UniProt P19099).
T1 sequence (P19099 25-503): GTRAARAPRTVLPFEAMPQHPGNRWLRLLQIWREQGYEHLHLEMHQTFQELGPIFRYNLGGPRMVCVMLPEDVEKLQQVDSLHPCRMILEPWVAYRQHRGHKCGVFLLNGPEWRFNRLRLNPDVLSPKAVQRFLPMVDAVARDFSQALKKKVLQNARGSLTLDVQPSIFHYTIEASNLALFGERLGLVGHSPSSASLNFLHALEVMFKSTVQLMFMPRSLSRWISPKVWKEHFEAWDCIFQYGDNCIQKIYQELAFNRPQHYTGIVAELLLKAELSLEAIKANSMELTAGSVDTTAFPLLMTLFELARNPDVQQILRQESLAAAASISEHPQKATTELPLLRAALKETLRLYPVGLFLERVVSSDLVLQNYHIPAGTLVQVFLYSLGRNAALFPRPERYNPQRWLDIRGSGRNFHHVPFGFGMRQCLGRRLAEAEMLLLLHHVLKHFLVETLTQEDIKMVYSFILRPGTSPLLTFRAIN
In words: Screening test in transgenic fission yeast (S. pombe PE1) expressing human CYP11B2. The arrangement: expressed in transfected cells. Type of assay: cell-based. The essentials:
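Deoxycorticosterone conversion to corticosterone, 18-hydroxycorticosterone and aldosterone assessed after EtOAc extraction by HPTLC with 14C phosphorimaging. Conversion rate calculated from quantified steroid spots.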

A further assay has as its target T2, human CYP11B1 (Homo sapiens, UniProt P15538).
T2 construct: expressed in transfected cells; host or cells: V79 MZh11B1 (Chinese hamster lung fibroblasts)
T2 sequence (P15538 25-503): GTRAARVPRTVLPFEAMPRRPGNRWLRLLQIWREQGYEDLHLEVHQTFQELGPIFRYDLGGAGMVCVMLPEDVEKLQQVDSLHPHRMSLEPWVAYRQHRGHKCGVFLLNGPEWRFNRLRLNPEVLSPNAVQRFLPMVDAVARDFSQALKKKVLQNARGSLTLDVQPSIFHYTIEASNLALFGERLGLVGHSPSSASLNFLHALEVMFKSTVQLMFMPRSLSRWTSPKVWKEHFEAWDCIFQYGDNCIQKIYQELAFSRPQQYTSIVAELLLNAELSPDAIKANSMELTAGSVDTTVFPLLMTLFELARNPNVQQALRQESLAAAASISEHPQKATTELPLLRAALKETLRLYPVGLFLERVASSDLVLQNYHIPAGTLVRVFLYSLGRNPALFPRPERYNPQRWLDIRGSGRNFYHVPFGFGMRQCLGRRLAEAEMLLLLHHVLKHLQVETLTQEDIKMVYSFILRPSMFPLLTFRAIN
The experiment in a line: V79 MZh 11B1 cells inhibition test. Type of assay: cell-based. Here is the method:
Both cell lines were cultured in DMEM^+ containing […] and the antibiotics penicillin and streptomycin (10%) for protection from bacterial contamination. The cells were passaged every 2-3 days after treatment with trypsin/EDTA because the doubling rate was 1-2 days depending on the number of cells. […] When there was further need, freshly thawed cells were employed.
Thereafter, the plate was stored at 37° C. and […] in a CO2 incubator. […] Controls without inhibitor were treated in the same way. The enzyme reactions were quenched by extracting the supernatant with 500 μl of EtOAc. The samples were centrifuged (10,000 g, 2 min), the solvent was removed and evaporated.
It was calculated by determining the percent inhibition for at least 3 different inhibitor concentrations, which must all be in the linear range of the sigmoidal IC50 curve (log C/% inhibition).
The calculation was effected by linear regression. The values determined were used only if they formed a straight line with a reliability of […].
The plate was developed twice with the mobile solvent chloroform:methanol:water (300:20:1). Unlabeled 11-deoxycorticosterone and corticosterone were applied as a reference for the CYP11B1 reaction. For the CYP11B2 reaction, 11-deoxycorticosterone, corticosterone, 18-hydroxycorticosterone and aldosterone were used as references. The detection of the unlabeled references was effected at 260 nm. Subsequently, imaging plates (BAS MS2340, for ^14C samples, Raytest, Straubenhardt, Germany) were exposed to the HPTLC plates for 48 h. The imaging plates were scanned with the phosphoimager system Fuji FLA 3000 (Raytest, Straubenhardt, Germany), and the steroids were quantified.

[1] abbreviates: hamster fibroblasts which express human CYP11B1, deoxycorticosterone substrate 100 nM, read-out: IC50 V79 11B1 hCYP11B1.
Setting [2] is: S. pombe cells which express human CYP11B2, deoxycorticosterone substrate 100 nM, inhibitor 500 nM, read-out: % Inhibition human hCYP11B2.

Where a name gives a salt, the structure may show the parent alone. Read-outs that look alike come from different tables or passages of the source.

Take `Fc1ccc2c(c1)CC/C2=C/c1cccnc1` [Compound 5b, 3-[(Z)-(5-Fluoro-2,3-dihydro-1H-indane-1-ylidene)methyl]pyridine Hydrochloride]: the inhibition at 0.5 µM came out at 89% on human CYP11B2 (read-out: % Inhibition human hCYP11B2) and 88.6% at human CYP11B2 (read-out: S. pombe PE1 CYP11B2 DOC % inhibition). The IC50 amounted to 125 nM on human CYP11B1 (Table 7: preincubation 1 h, DOC 100 nM, incubation 140 min, read-out: V79MZh11B1 CYP11B1 DOC [IC50]) and 125 nM on human CYP11B1 (setting [1]).

With `Fc1ccc2c(c1)CC/C2=C\c1cccnc1` [Compound 5a, 3-[(E)-(5-Fluoro-2,3-dihydro-1H-indane-1-ylidene)methyl]pyridine Hydrochloride], the inhibition at 0.5 µM at human CYP11B2 (setting [2]) turned out to be 88%. For the same compound, on human CYP11B1 (setting [1]), the IC50 came out at 311 nM.

As to `Fc1ccc2c(c1)CC/C2=C/c1cccc2cnccc12` [Compound 30b, 5-[(Z)-(5-Fluoro-2,3-dihydro-1H-indane-1-ylidene)methyl]isoquinoline Hydrochloride], at human CYP11B2 (setting [2]), the inhibition at 0.5 µM is 91%. Also, the IC50 on human CYP11B1 (setting [1]) was found to be 374 nM.

Take `C(=C1\CCCc2ccccc21)/c1cccnc1.Cl` [Compound 3b, 3-[(Z)-3,4-Dihydronaphthalene-1(2H)-ylidenemethyl]pyridine Hydrochloride]: the inhibition at 0.5 µM on human CYP11B2 (setting [2]) turned out to be 68%. Moreover, the IC50 on human CYP11B1 (setting [1]) was determined as 1420 nM.

For the compound `Brc1ccc2c(c1)CC/C2=C/c1cccnc1` [Compound 9b, 3-[(Z)-(5-Bromo-2,3-dihydro-1H-indane-1-ylidene)methyl]pyridine Hydrochloride], the inhibition at 0.5 µM on human CYP11B2 (setting [2]) is 58%. Moreover, at human CYP11B1 (setting [1]), the IC50 was found to be 320 nM.

With `CCOc1ccc2c(c1)CC/C2=C/c1cccnc1` [Compound 19b, 3-[(Z)-(5-Ethoxy-2,3-dihydro-1H-indane-1-ylidene)methyl]pyridine Hydrochloride], at human CYP11B2 (setting [2]), the inhibition at 0.5 µM was 52%. Also, the IC50 at human CYP11B1 (setting [1]) was determined as 2700 nM.

`Clc1ccc2c(c1)CC/C2=C/c1cccnc1` [Compound 7b, 3-[(Z)-(5-Chloro-2,3-dihydro-1H-indane-1-ylidene)methyl]pyridine Hydrochloride]: on human CYP11B2 (setting [2]), the inhibition at 0.5 µM amounted to 68%. The IC50 on human CYP11B1 (setting [1]) was 270 nM.

In the case of `Brc1ccc2c(c1)CC/C2=C\c1cccnc1` [Compound 9a, 3-[(E)-(5-Bromo-2,3-dihydro-1H-indane-1-ylidene)methyl]pyridine Hydrochloride], at human CYP11B2 (setting [2]), the inhibition at 0.5 µM was 60%. For the same compound, the IC50 at human CYP11B1 (setting [1]) came out at 1940 nM.

For `C(=C1/CCc2ccccc21)/c1cccnc1` [Compound 1a, 3-[(E)-2,3-Dihydro-1H-indane-1-ylidenemethyl]pyridine Hydrochloride], on human CYP11B2 (setting [2]), the inhibition at 0.5 µM was 82%. In addition, the IC50 at human CYP11B1 (setting [1]) turned out to be 888 nM.

`Clc1ccc2c(c1)CC/C2=C\c1cccnc1` [Compound 7a, 3-[(E)-(5-Chloro-2.3-dihydro-1H-indane-1-ylidene)methyl]pyridine Hydrochloride]: the inhibition at 0.5 µM on human CYP11B2 (setting [2]) was 75%. The IC50 at human CYP11B1 (setting [1]) came to 1470 nM.

Turning to `C(=C1/CCCc2ccccc21)/c1cccnc1.Cl` [Compound 3a, 3-[(E)-3,4-Dihydronaphthalene-1(2H)-ylidenemethyl]pyridine Hydrochloride], at human CYP11B2 (setting [2]), the inhibition at 0.5 µM was found to be 70%. Besides, the IC50 on human CYP11B1 (setting [1]) came out at 715 nM.
